Key:
[1] = test system: Pcsk9+/+ and Pcsk9−/− mice; conditions: CF 8 h
Description: All animal studies were carried out in 8 h-fasted male wild-type, Pcsk9^−/− or Ampkβ1^−/− mice on the C57BL/6J background. CF (25-100 mg/kg-8 h) and CDN (50 mg/kg) treatments were administered via intraperitoneal injection unless specified otherwise. Primary mouse hepatocytes were isolated using a two-step process with EGTA ([…] in HEPES buffer, Sigma Aldrich) and collagenase (0.05% in HEPES buffer, Sigma Aldrich) in 12-week-old male mice on the C57BL/6J background. Cells were then washed, centrifuged, and plated following isolation in cell strainers. Hepatosure® 100-donor pooled primary human hepatocytes were purchased from Xenotech. Primary hepatocytes were regularly grown in William's E medium (Gibco, Thermo Fisher Scientific) containing 10% fetal bovine serum, 100 IU/ml penicillin, and 100 µg/ml streptomycin.

PCSK9 = assay: Plasma PCSK9 in healthy human subjects after oral CF; type: in vivo; conditions: fasted healthy subjects, 400 mg orally (~5 mg/kg)
Description: Secreted PCSK9 levels were assessed directly in cell culture medium of cells grown in FBS-free medium for 24 h or in the serum isolated from either mice or human subjects. Mouse PCSK9 was measured using the Quantikinine® ELISA kit (#MCP900, R&D Systems) and human PCSK9 using the PCSK9 Quantikinine® ELISA kit (#DCP900, R&D Systems). Serum ApoB levels were also quantified using ELISAs (#DAPB00, R&D Systems). Serum samples were diluted as per manufacturer's instructions.
Healthy human subjects between the ages of 22 and 45 underwent fasting for 12 h prior to oral administration of 400 mg CF (˜5 mg/kg). Blood was collected prior to administration and at h 2 and 4 following administration.
Given that CF is among the most commonly consumed pharmacologically active compounds in the world (8), its ability to affect PCSK9 levels in fasted healthy volunteers was assessed. Serum was collected prior to, as well as 2- and 4-h post CF treatment (400 mg orally; ˜5 mg/kg). Consistent with the observations in cultured hepatocytes and in mice, CF reduced plasma PCSK9 levels in healthy subjects by 25% (n=12) and 21% (n=8) at the 2- and 4-h time points, respectively (FIG. 11 A and B).

Structure (SMILES): Cn1c(=O)c2c(ncn2C)n(C)c1=O [caffeine, 1,3,7-Trimethylxanthine]
- hepatic and serum DiI fluorescence in Pcsk9−/− mice [1]: failed to affect these parameters
- reduction of plasma PCSK9 levels at 2 h (PCSK9; 2 h): 25%
- reduction of plasma PCSK9 levels at 4 h (PCSK9; 4 h): 21%

— patent publication US20260151398A1, “COMPOUNDS FOR REDUCING CHOLESTEROL AND TREATING LIVER AND KIDNEY DISEASE” (McMaster University, priority 2021, published 2026)
